Patent publication US11014917B2, “5-fluoro-c-(aryl or heterocyclyl)-glycoside derivatives useful as dual SGLT1 / SGLT2 modulators” (Janssen Pharmaceutica NV, priority 2017, dated 2021)

Experiments:
human SGLT1 = target: T1, human SGLT1 (Homo sapiens, UniProt P13866); assay: SGLT1 assay: Na-dependent 14C-AMG uptake in CHO-K1 cells stably expressing human SGLT1; assay type: cell-based; conditions: for IC50: average if tested more than once; for SGLT1 %-inhibition: @ 0.3 μM
T1 construct: expressed in transfected cells
T1 sequence (P13866 1-664): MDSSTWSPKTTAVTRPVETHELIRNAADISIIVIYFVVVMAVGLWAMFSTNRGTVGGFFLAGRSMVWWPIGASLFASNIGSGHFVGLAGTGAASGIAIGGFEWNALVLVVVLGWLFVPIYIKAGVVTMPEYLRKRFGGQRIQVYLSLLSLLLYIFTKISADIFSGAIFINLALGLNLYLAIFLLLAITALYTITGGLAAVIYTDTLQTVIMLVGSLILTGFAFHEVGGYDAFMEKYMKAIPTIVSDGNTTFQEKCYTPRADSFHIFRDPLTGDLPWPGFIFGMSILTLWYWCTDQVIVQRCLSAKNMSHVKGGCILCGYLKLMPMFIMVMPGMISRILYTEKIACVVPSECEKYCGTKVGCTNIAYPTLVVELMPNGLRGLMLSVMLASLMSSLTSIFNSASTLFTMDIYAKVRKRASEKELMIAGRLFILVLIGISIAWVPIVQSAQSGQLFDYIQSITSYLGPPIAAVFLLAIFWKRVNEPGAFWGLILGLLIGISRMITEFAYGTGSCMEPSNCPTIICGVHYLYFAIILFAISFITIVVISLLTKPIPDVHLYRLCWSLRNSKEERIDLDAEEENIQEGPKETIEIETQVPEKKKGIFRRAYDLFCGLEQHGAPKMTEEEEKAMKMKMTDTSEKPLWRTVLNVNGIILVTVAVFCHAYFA
Protocol: (§1) The ability of the compounds of formula (I) of the present invention to treat an SGLT-mediated condition was determined using the following procedures:
(§2) SGLT1 and SGLT2 were cloned in form of cDNA from human small intestine (Genbank M24847), and from human kidney (Genbank M95549), respectively. Subsequently, each full cDNA was subcloned into pcDNA with each construct's integrity verified through follow-on sequencing. To generate CHO-K1 cells that stably express human SGLT1 or human SGLT2, CHO-K1 cells were transfected using DMRIE-C reagent (Life Technologies, Gaithersburg, Md.). Transfected cells were then selected in the presence of 500 μg/ml of the Geneticin (G418 Cellgro Catalog No. 30234-Cl)
(§3) Individual clones were then characterized using the following cell-based assay for sodium-dependent glucose transport:
(§4) Inhibition of SGLT1 and SGLT2 activity was assessed in CHO K1 cells stably expressing either human SGLT1 or SGLT2, using the SGLT specific glucose analog methyl-glucopyranoside (Sigma Catalog No. M-9376). Cells were plated (45,000 cells/well) in white wall 96-well plates (COSTAR, Cat #3903) for 24 hours in growth medium, then a final concentration of 10 mM Na-Butyrate (ALDRICH Cat #30341-0) was added. The cells were incubated for 24 hours. On the day of the assay, cells were rinsed and treated with test compounds (at concentrations of 0.001 μM to 10 μM) in assay buffer (50 mM HEPES, 20 mM Tris base, 5 mM KCl, 1 mM MgCl2, 1 mM CaCl2 and 137 mM NaCl, pH 7.4) for 10 minutes. Cells were then incubated with ^14C-a-methyl-d-glucopyranoside (AMG, Amersham Catalog No. CFB 76), using 0.07 μCi per well in 500 μM AMG final concentration. The cells were incubated for 2 hours at 37° C. with 5% CO2 and washed two times with ice-cold Phosphate Buffer Solution (Cellgro Catalog No. 21030-CV). The cells were then solubilized by adding 60 μl of MICROSCINT™20 and the Na-dependent ^14C-AMG uptake was quantified by measuring radioactivity. Plates were counted in a TopCount (Packard, Meriden, Conn.)
(§5) Representative compounds of the present invention were tested according to the procedures as described in Biological Example 1 and 2 above, with results as listed in Table 5, below. Results are reported as the %-inhibition or IC50 value. Variability for the functional assay was typically within 20%.

human SGLT2 = target: T2, human SGLT2 (Homo sapiens, UniProt P31639); assay: SGLT2 assay: Na-dependent 14C-AMG uptake in CHO-K1 cells stably expressing human SGLT2; assay type: cell-based; conditions: for IC50: average if tested more than once; for SGLT2 %-inhibition: @ 0.3 μM
T2 construct: expressed in transfected cells
T2 sequence (P31639 1-672): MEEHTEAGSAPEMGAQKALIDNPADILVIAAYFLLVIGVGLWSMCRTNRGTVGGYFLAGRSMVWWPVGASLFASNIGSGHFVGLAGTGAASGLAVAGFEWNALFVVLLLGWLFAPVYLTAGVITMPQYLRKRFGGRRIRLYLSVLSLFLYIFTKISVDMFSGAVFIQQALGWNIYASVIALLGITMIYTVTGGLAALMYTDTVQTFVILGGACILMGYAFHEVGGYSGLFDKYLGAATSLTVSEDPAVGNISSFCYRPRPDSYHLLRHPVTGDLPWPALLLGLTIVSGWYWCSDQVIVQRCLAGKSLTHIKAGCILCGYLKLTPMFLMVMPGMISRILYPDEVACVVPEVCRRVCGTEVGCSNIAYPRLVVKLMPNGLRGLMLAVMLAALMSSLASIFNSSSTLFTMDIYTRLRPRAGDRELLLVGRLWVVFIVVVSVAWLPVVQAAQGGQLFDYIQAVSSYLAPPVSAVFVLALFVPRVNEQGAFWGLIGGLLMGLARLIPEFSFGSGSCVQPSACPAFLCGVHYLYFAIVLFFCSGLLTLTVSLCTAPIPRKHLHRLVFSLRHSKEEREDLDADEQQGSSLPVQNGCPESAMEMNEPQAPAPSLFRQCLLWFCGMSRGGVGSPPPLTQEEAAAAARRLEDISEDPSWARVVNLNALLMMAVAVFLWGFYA
Protocol: as §1, §2, §3, §4, §5

Structure (SMILES) | IC50 (human SGLT1) [nM] | IC50 (human SGLT2) [nM] | SGLT1 %-inhibition (human SGLT1) [% @ 0.3 μM] | SGLT2 %-inhibition (human SGLT2) [% @ 0.3 μM]
COc1cc(O)c([C@@H]2O[C@H](CO)[C@@H](F)[C@H](O)[C@H]2O)cc1Cc1cc2ccccc2s1 [Compound 2, (2S,3R,4R,5S,6R)-2-(5-(benzo[b]thiophen-2-ylmethyl)-2-hydroxy-4-methoxyphenyl)-5-fluoro-6-(hydroxymethyl)tetrahydro-2H-pyran-3,4-diol] | 9 | 8 | – | –
COc1cc(Cl)c([C@@H]2O[C@H](CC#N)[C@@H](F)[C@H](O)[C@H]2O)cc1Cc1cc2ccccc2s1 [Compound 26] | 847 | 982 | – | –
COc1c(Cc2cc3ccccc3s2)cc([C@@H]2O[C@H](CO)[C@@H](F)[C@H](O)[C@H]2O)c(OC)c1C [Compound 15] | 100 | 68 | – | –
[2H]C([2H])(c1ccc2c(c1)OCCO2)c1cc([C@@H]2O[C@H](CO)[C@@H](F)[C@H](O)[C@H]2O)c(OC)c2c1OCC2 [Compound 163, (2S,3R,4R,5S,6R)-2-[7-[dideuterio(2,3-dihydro-1,4-benzodioxin-6-yl)methyl]-4-methoxy-2,3-dihydrobenzofuran-5-yl]-5-fluoro-6-(hydroxymethyl)tetrahydropyran-3,4-diol] | 50 | 8 | – | –
CCc1ccc([C@@H]2O[C@H](CO)[C@@H](F)[C@H](O)[C@H]2O)cc1Cc1ccc2c(c1)OC(F)(F)O2 [Compound 159] | – | – | 6.0 | 0.0
[2H]C([2H])([2H])Oc1c([C@@H]2O[C@H](CO)[C@@H](F)[C@H](O)[C@H]2O)cc(C([2H])([2H])c2ccc3c(c2)OCCO3)c2c1CCO2 [Compound 161, (2S,3R,4R,5S,6R)-2-(7-((2,3-dihydrobenzo[b][1,4]dioxin-6-yl-)methyl-d2)-4-(methoxy-d3)-2,3-dihydrobenzofuran-5-yl)-5-fluoro-6-(hydroxymethyl)tetrahydro-2H-pyran-3,4-diol] | 52 | 7 | – | –
COc1c([C@@H]2O[C@H](CO)[C@@H](F)[C@H](O)[C@H]2O)cc(Cc2ccc3c(c2)SCCO3)c2c1CCO2 [Compound 107, (2S,3R,4R,5S,6R)-2-(7-((2,3-dihydrobenzo[b][1,4]oxathiin-6-yl)methyl)-4-methoxy-2,3-dihydrobenzofuran-5-yl)-5-fluoro-6-(hydroxymethyl)-tetrahydro-2H-pyran-3,4-diol] | 163 | 8 | – | –
[2H]C([2H])(c1ccc2c(c1)CCCO2)c1cc([C@@H]2O[C@H](CO)[C@@H](F)[C@H](O)[C@H]2O)ccc1CC [Compound 169] | – | – | 37.2 | 72.7
Cc1cc(O)c([C@@H]2O[C@H](CN)[C@@H](F)[C@H](O)[C@H]2O)cc1Cc1cc2ccccc2s1 [Compound 24] | 977 | 332 | – | –
[2H]C1([2H])Oc2ccc(Cc3cc([C@@H]4O[C@H](CO)[C@@H](F)[C@H](O)[C@H]4O)ccc3CC)cc2OC1([2H])[2H] [Compound 175] | 87 | 12 | – | –
Cc1ccc([C@@H]2O[C@H](CO)[C@@H](F)[C@H](O)[C@H]2O)cc1Cc1cc2c(s1)CCCC2=O [Compound 116] | – | – | 11.5 | 78.0
OC[C@H]1O[C@@H](c2cc3c(c(Cc4ccc5c(c4)SCCO5)c2)OCC3)[C@H](O)[C@@H](O)[C@@H]1F [Compound 124] | 698 | 147 | – | –
CCc1ccc(Cc2cc([C@@H]3O[C@H](CO)[C@@H](F)[C@H](O)[C@H]3O)c(OC)c3c2OCC3)cc1 [Compound 135] | 85 | 8 | – | –
OC[C@H]1O[C@@H](c2cc3c(c(Cc4ccc5c(c4)OCCO5)c2)OCC3)[C@H](O)[C@@H](O)[C@@H]1F [Compound 54] | 69 | 11 | – | –
OC[C@H]1O[C@@H](c2cc(Cc3cc4ccccc4s3)c(C3CC3)cc2O)[C@H](O)[C@@H](O)[C@@H]1F [Compound 29] | 13 | 62 | – | –
COc1cc(OC)c(C2OC(C(C)O)C(F)C(O)C2O)cc1Cc1cc2ccccc2s1 (single isomer, unassigned) [Compound 72] | 127 | 24 | – | –
COc1cc(Cl)c([C@@H]2O[C@H](CO)[C@@H](F)[C@H](O)[C@H]2O)cc1Cc1cc2ccccc2s1 [Compound 21] | 313 | 112 | – | –
Cc1cc(O)c([C@@H]2O[C@H](C)[C@@H](F)[C@H](O)[C@H]2O)cc1Cc1cc2ccccc2s1 [Compound 16, (2S,3R,4R,5S,6R)-2-(5-(benzo[b]thiophen-2-ylmethyl)-2-hydroxy-4-methylphenyl)-5-fluoro-6-methyl-tetrahydro-2H-pyran-3,4-diol] | 111 | 29 | – | –
[2H]C([2H])(c1ccc2c(c1)OCCO2)c1cc([C@@H]2O[C@H](CO)[C@@H](F)[C@H](O)[C@H]2O)ccc1CC [Compound 157] | – | – | 47.7 | 61.9
Cc1cc(O)c([C@@H]2O[C@H](CO)[C@@H](F)[C@H](O)[C@H]2O)cc1Cc1cc2c(s1)CCN(C(=O)C1CCCC1)C2 [Compound 86, Cyclopentyl(2-(5-((2S,3R,4R,5S,6R)-5-fluoro-3,4-dihydroxy-6-(hydroxymethyl)-tetrahydro-2H-pyran-2-yl)-4-hydroxy-2-methylbenzyl)-6,7-dihydrothieno[3,2-c]pyridin-5(4H)-yl)methanone] | 290 | 38 | – | –
N#CN1CCc2sc(Cc3cc([C@@H]4O[C@H](CO)[C@@H](F)[C@H](O)[C@H]4O)c(O)cc3Cl)cc2C1 [Compound 114] | 109 | 5 | – | –
COc1c(Cc2ccc3c(c2)OCCO3)cc([C@@H]2O[C@H](CO)[C@@H](F)[C@H](O)[C@H]2O)c2c1CCO2 [Compound 101, (2S,3R,4R,5S,6R)-2-[5-(2,3-dihydro-1,4-benzodioxin-6-ylmethyl)-4-methoxy-2,3-dihydrobenzofuran-7-yl]-5-fluoro-6-(hydroxymethyl)tetrahydropyran-3,4-diol] | 96 | 7 | – | –
CC1(CO)COc2c(Cc3ccc4c(c3)OCCO4)cc([C@@H]3O[C@H](CO)[C@@H](F)[C@H](O)[C@H]3O)cc21 (stereo partly shown) [Compound 88] | – | – | 42.5 | 44.8
